Results: patent US9458414B2, “Cleaning, surfactant, and personal care compositions” (SEGETIS, INC., priority 2012, dated 2016)

Tests used:
Type in all cases: physicochemical
[1] = Coupling of water and octanoic acid by hydrotropes (amount producing a single phase)
Method: Hydrotropes were added to a two-component mixture of octanoic acid and deionized (DI) water to find the amount that produced a single phase from the two separate phases of water and octanoic acid.
The percent hydrotrope required to compatibilize phases (and the resulting percent octanoic acid) were calculated and the results are shown in Table 4 as well as FIG. 1.

[2] = Coupling of water and soy methyl ester by hydrotropes
Method: Hydrotropes were added to a two-component mixture of soy methyl ester and DI water to find the amount that produced a single phase from the two separate phases of water and soy methyl ester. The percent hydrotrope required to compatibilize the phases was calculated.

[3] = Coupling of water and castor oil by hydrotropes
[4] = ratio of water:octanoic acid 10:90
[5] = ratio of water:octanoic acid 30:70
[6] = ratio of water:octanoic acid 50:50
[7] = ratio of water:octanoic acid 70:30
[8] = ratio of water:octanoic acid 90:10
[9] = water:octanoic acid 10:90 (DI water 0.5 g, octanoic acid 4.5 g)
[10] = water:octanoic acid 30:70 (DI water 1.5 g, octanoic acid 3.5 g)
[11] = water:octanoic acid 50:50 (DI water 5.0 g, octanoic acid 5.0 g)
[12] = water:octanoic acid 70:30 (DI water 3.5 g, octanoic acid 1.5 g)
[13] = water:octanoic acid 90:10 (DI water 4.5 g, octanoic acid 0.5 g)
[14] = ratio of water:soy methyl esters 10:90
[15] = ratio of water:soy methyl esters 30:70
[16] = ratio of water:soy methyl esters 50:50
[17] = ratio of water:soy methyl esters 70:30
[18] = ratio of water:soy methyl esters 90:10
[19] = ratio of water to castor oil 10:90
[20] = ratio of water to castor oil 30:70
[21] = ratio of water to castor oil 50:50
[22] = ratio of water to castor oil 70:30
[23] = ratio of water to castor oil 90:10

Wt % Hydrotrope required to compatibilize phases [1, 4] [%] | Wt % Octanoic Acid (resulting, at compatibilization) [1, 4] [%] | Wt % Hydrotrope required to compatibilize phases [1, 5] [%] | Wt % Octanoic Acid (resulting, at compatibilization) [1, 5] [%] | Wt % Hydrotrope required to compatibilize phases [1, 6] [%] | Wt % Octanoic Acid (resulting, at compatibilization) [1, 6] [%] | Wt % Hydrotrope required to compatibilize phases [1, 7] [%] | Wt % Octanoic Acid (resulting, at compatibilization) [1, 7] [%] | Wt % Hydrotrope required to compatibilize phases [1, 8] [%] | Wt % Octanoic Acid (resulting, at compatibilization) [1, 8] [%] | Amount of hydrotrope that produced a single phase [1, 9] [grams] | Amount of hydrotrope that produced a single phase [1, 10] [grams] | Amount of hydrotrope that produced a single phase [1, 11] [grams] | Amount of hydrotrope that produced a single phase [1, 12] [grams] | Amount of hydrotrope that produced a single phase [1, 13] [grams] | Wt % Hydrotrope required to compatibilize the phases [2, 14] [%] | Wt % Soy Methyl Esters (at compatibilization) [2, 14] [%] | Wt % Hydrotrope required to compatibilize the phases [2, 15] [%] | Wt % Soy Methyl Esters (at compatibilization) [2, 15] [%] | Wt % Hydrotrope required to compatibilize the phases [2, 16] [%] | SMILES | further results
30 | 63 | 47 | 37 | 51 | 25 | 48 | 16 | 43 | 6 | 2.14 | 4.52 | 10.34 | 4.66 | 3.7 | 48 | 47 | 63 | 28 | 74 | COC(C)COC(C)CO (stereo not shown) [DPM, dipropylene glycol methyl ether] | Wt % Soy Methyl Esters (at compatibilization) [2, 16]: 13%; Wt % Hydrotrope required to compatibilize the phases [2, 17]: 78%; Wt % Soy Methyl Esters (at compatibilization) [2, 17]: 5%; Wt % Hydrotrope required to compatibilize the phases [2, 18]: 78%; Wt % Soy Methyl Esters (at compatibilization) [2, 18]: 2%; Wt % Castor oil (at compatibilization) [3, 19]: 40%; Wt % Hydrotrope required to compatibilize phases [3, 19]: 56%; Wt % Castor oil (at compatibilization) [3, 20]: 26%; Wt % Hydrotrope required to compatibilize phases [3, 20]: 65%; Wt % Castor oil (at compatibilization) [3, 21]: 13%; Wt % Hydrotrope required to compatibilize phases [3, 21]: 74%; Wt % Castor oil (at compatibilization) [3, 22]: 5%; Wt % Hydrotrope required to compatibilize phases [3, 22]: 79%; Wt % Castor oil (at compatibilization) [3, 23]: 2%; Wt % Hydrotrope required to compatibilize phases [3, 23]: 81%
18 | 74 | 38 | 43 | 42 | 29 | 42 | 17 | 41 | 6 | 1.09 | 3.12 | 3.62 | 3.68 | 3.44 | 51 | 44 | 67 | 25 | 77 | COCC(C)O (stereo not shown) [PM, propylene glycol methyl ether] | Wt % Soy Methyl Esters (at compatibilization) [2, 16]: 11%; Wt % Hydrotrope required to compatibilize the phases [2, 17]: 81%; Wt % Soy Methyl Esters (at compatibilization) [2, 17]: 5%; Wt % Hydrotrope required to compatibilize the phases [2, 18]: 77%; Wt % Soy Methyl Esters (at compatibilization) [2, 18]: 2%; Wt % Castor oil (at compatibilization) [3, 19]: 36%; Wt % Hydrotrope required to compatibilize phases [3, 19]: 61%; Wt % Castor oil (at compatibilization) [3, 20]: 26%; Wt % Hydrotrope required to compatibilize phases [3, 20]: 65%; Wt % Castor oil (at compatibilization) [3, 21]: 12%; Wt % Hydrotrope required to compatibilize phases [3, 21]: 76%; Wt % Castor oil (at compatibilization) [3, 22]: 5%; Wt % Hydrotrope required to compatibilize phases [3, 22]: 81%; Wt % Castor oil (at compatibilization) [3, 23]: 2%; Wt % Hydrotrope required to compatibilize phases [3, 23]: 83%
